Experimental data as given in the NIST ThermoML archive (doi:10.1016/j.jct.2015.10.026).

Legend:
[1] = 101.33 kPa, Liquid; for electrical conductivity: Direct current cell with electrodes; for mass density: Vibrating tube method
[2] = mn = molality of the nth substance listed, in mol/kg; conditions: 100 kPa, Liquid, Capillary tube (Ostwald / Ubbelohde) method, m2 = 0

CCCCn1cc[n+](C)c1.NCCS(=O)(=O)[O-] [1-butyl-3-methylimidazolium taurate]
[1], Cone and plate viscometry
Conditions	viscosity [mPa·s]
293.15 K	1761.4
298.15 K	1169.2
303.15 K	799.87
308.15 K	561.88
313.15 K	405.34
318.15 K	298.26
323.15 K	224.97

[1]
Conditions	electrical conductivity [S/m]	mass density [kg/m3]
293.15 K	0.0098	1195.4
298.15 K	0.0161	1192.1
303.15 K	0.0257	1188.77
308.15 K	0.0356	1185.4
313.15 K	0.0518	1182.02
318.15 K	0.0697	1178.53
323.15 K	0.0922	1175.06

O [water]
[1], Capillary tube (Ostwald / Ubbelohde) method
Conditions	viscosity [mPa·s]
293.15 K	1.003
298.15 K	0.89
303.15 K	0.797
308.15 K	0.719
313.15 K	0.653

O [water] + CCCCn1cc[n+](C)c1.NCCS(=O)(=O)[O-]
[2]
Conditions	viscosity [mPa·s]
293.15 K	1.003
298.15 K	0.89
303.15 K	0.797
308.15 K	0.719
313.15 K	0.653
